Reference: US3931188A, “3-Hydroxy-5,6-benzomorphinan derivatives” (Bristol-Myers Company, priority 1974, dated 1976)

Key:
[1] = test system: phenylquinone induced writhing; assay: Mouse phenylquinone writhing (analgesic activity); type: in vivo; conditions: for analgesic potency relative to pentazocine: in words, compared with pentazocine; for ED50: sc, mouse, subcutaneous, hydrochloride salts of IX and X, 50 percent reduction in number of writhings
Text: ^1 A 50 percent reduction in number of phenylquinone induced writhing
[Siegmumd, E.A., et al., Proc. Soc. Biol. & Med 95, p. 729 (1957)].

[2] = Behavioral studies in the dog; type: in vivo; conditions: subcutaneous dose of 2 mg./kg.
Protocol: The normal parenteral dosage of the compounds of this invention in adult humans is about 0.25 to 16 mg. three to four times a day.

[3] = test system: Straub Tail induced by oxymorphone; assay: Oxymorphone Straub Tail antagonism (antagonist activity); type: in vivo, mouse; conditions: for ED50: sc, mouse, subcutaneous, hydrochloride salts of IX and X, oxymorphone 2 mg./kg. s.c.
Protocol: ^2 Antagonism of Straub Tail induced by oxymorphone (2 mg./kg. s.c.)

[4] = test system: analgesic effect induced by morphine; assay: Morphine antagonist rat tail flick (antagonist activity); conditions: for ED50: Rattus norvegicus, sc, read-out: ED50 Antagonist Activity, Morphine Antagonist Rat Tail Flick
[5] = Chemical Abstracts 63, 18050-18051 (Belgian Pat. No. 644,679); cited from earlier work
[6] = Chemical Abstracts 63, 18050-18051 (Belgian Pat. No. 644,679); cited from earlier work; remark: listed apart in the source
[7] = J. Med. Chem. 12, 845-847 (1969); cited from earlier work
[8] = monkey; J. Med. Chem. 12, 845-847 (1969); cited from earlier work

Compound	analgesic potency relative to pentazocine [1]	ED50 [1] [mg/kg]	side effects in behavioral studies [2]	ED50 [3] [mg/kg]	ED50 [4] [mg/kg]	analgesic activity (in words) [5]	antagonism to meperidine (in words) [6]	other results
Oc1ccc2c(c1)[C@]13CCN(CC4CC4)[C@H](C2)[C@@H]1CCc1ccccc13 (relative stereo) [IX, 3-Hydroxy-17-cyclopropylmethyl-5,6-benzomorphinan]	about the same analgesic potency as pentazocine	~4.5	free of side effects	~40	2.3			antagonist activity (in words) ([3]; test not given): little antagonist activity
Oc1ccc2c(c1)[C@]13CCN(CC4CCC4)[C@H](C2)[C@@H]1CCc1ccccc13 (relative stereo) [X, 3-Hydroxy-17-cyclobutylmethyl-5,6-benzomorphinan]	about the same analgesic potency as pentazocine	~4.5	free of side effects	> 40				times more active as an antagonist in the rat than pentazocine ([4]; rat, relative to pentazocine): approximately 5 times
Oc1ccc2c(c1)[C@@]13CCCC[C@H]1[C@@H](C2)N(CC1CCC1)CC3 (stereo in doubt) [N-cyclobutylmethyl-3-hydroxymorphinan]						analgesics	antagonists to meperidine	
NC(=O)N1CCC2CC1Cc1ccc(O)cc12 (centres unmarked) [3-carboxamido-1,2,3,4,5,6-hexahydro-2,6-methano-3-benzazocin-8-ol]								analgetic effect, oral (in words) [7]: orally effective analgetic; physical dependence capacity (in words) [8]: unusual freedom from physical dependence capacity in the monkey
Oc1ccc2c(c1)[C@@]13CCCC[C@H]1[C@@H](C2)N(CC1CC1)CC3 [N-cyclopropylmethyl-3-hydroxymorphinan]						analgesics	antagonists to meperidine	
CC(C)=CCN1CCC2(C)c3cc(O)ccc3CC1C2C (centres unmarked) [Pentazocine, reference compound]		3.7		12	12.2			
